Source: patent US4112228A, “7-(D-α-Hydroxy-2-arylacetamido)-3-(2-carboxyalkyl-2,3-dihydro-s-tri azolo-[4,3-b]pyridazin-3-on-6-ylthiomethyl)-3-cephem-4-carboxylic acids and derivatives” (priority 1977, dated 1978)
Read-outs that look alike come from different tables or passages of the source.

Experiments:
S. aureus = assay: MIC by Steers' agar dilution method; assay type: cell-based; details: Staphylococcus aureus
Sal. typhosa = assay: MIC by Steers' agar dilution method; assay type: cell-based; details: St-1; MHA; Table 3
B. anthracis = assay: microbe, parasite or virus in culture; assay type: cell-based; details: Bacillus anthracis
[1] = Blood levels in mice after subcutaneous administration; assay type: in vivo; details: mouse, read-out: Blood level; for concentration at 0.25 h: 15'; for concentration at 0.5 h: 30'
Protocol: Groups of mice were administered subcutaneously graded doses of 40, 20 and 10 mg./kg..

Cn1nnnc1SCC1=C(C(=O)O)N2C(=O)[C@@H](NC(=O)[C@H](O)c3ccccc3)[C@H]2SC1 [Cefamandole, cefamandole, reference compound]
0.05 µg/mL: MIC (S. aureus; A9497, MHA, Table 1) | MIC (S. aureus; Smith A9537, MHA, Table 1)
3800 ng/mL: concentration at 0.25 h ([1]; sc 10 mg./kg.)
0.0125 µg/mL: MIC (S. aureus; Sa-33 Terajima, MHA, Table 2)
25 µg/mL: MIC (S. aureus; Sa-44 A15097, MHA, Table 2)
0.1 µg/mL: MIC (S. aureus; BX-1633 A9606, MHA, Table 1) | MIC (S. aureus; Sa-12 A9497, MHA, Table 2) | MIC (S. aureus; strain not named, MHA, Example 10)
0.4 µg/mL: MIC (S. aureus; BX-1633, MHA, Example 10) | MIC (S. aureus; Sa-10 A20239, MHA, Table 2) | MIC (S. aureus; Sa-11 BX-1633 A9606 (β-lactamase), HIA, Table 4) | MIC (S. aureus; Sa-11 BX-1633 A9606 (β-lactamase), MHA, Table 4) | MIC (S. aureus; Sa-11 BX-1633 A9606 (β-lactamase), NA, Table 4) | MIC (S. aureus; Sa-35 A15094, MHA, Table 2) | MIC (S. aureus; Sa-36 Russell, MHA, Table 2) | MIC (S. aureus; Sa-39 A9578, MHA, Table 2) | MIC (S. aureus; Sa-40 A9601, MHA, Table 2) | MIC (S. aureus; Sa-68 A20612, MHA, Table 2) | MIC (B. anthracis; Ba-3 A9504, MHA, Table 4) | MIC (B. anthracis; Ba-3 A9504, NA, Table 4) | MIC (B. anthracis; MHA, Example 10)
0.2 µg/mL: MIC (S. aureus; Sa-2 Smith A9537, HIA, Table 4) | MIC (S. aureus; Sa-2 Smith A9537, MHA, Table 2) | MIC (S. aureus; Sa-2 Smith A9537, MHA, Table 4) | MIC (S. aureus; Sa-2 Smith A9537, NA, Table 4) | MIC (S. aureus; Sa-3 No. 193, MHA, Table 2) | MIC (S. aureus; Sa-8, MHA, Table 2) | MIC (S. aureus; Sa-9 No. 193, MHA, Table 2) | MIC (S. aureus; Sa-11 BX-1633 A9606, MHA, Table 2) | MIC (S. aureus; Sa-34 A15092, MHA, Table 2) | MIC (S. aureus; Sa-38 A9534, MHA, Table 2) | MIC (S. aureus; Sa-41 A9602, MHA, Table 2) | MIC (S. aureus; Smith, MHA, Example 10) | MIC (Sal. typhosa) | MIC (B. anthracis; Ba-3 A9504, HIA, Table 4)
1.6 µg/mL: MIC (S. aureus; Sa-58 A15033, MHA, Table 2)
6.3 µg/mL: MIC (S. aureus; Sa-44 A15097, NA, Table 4) | MIC (S. aureus; Sa-59 A15096, MHA, Table 2) | MIC (S. aureus; Sa-61 A20605, MHA, Table 2) | MIC (S. aureus; Sa-64 A20608, MHA, Table 2) | MIC (S. aureus; Sa-65 A20609, MHA, Table 2) | MIC (S. aureus; Sa-66 A20610, MHA, Table 2) | MIC (S. aureus; Sa-67 A20611, MHA, Table 2) | MIC (S. aureus; Sa-69 A20613, MHA, Table 2)
1500 ng/mL: concentration at 0.5 h ([1]; sc 10 mg./kg.)
300 ng/mL: concentration at 1 h ([1]; sc 10 mg./kg., 60')
4100 ng/mL: concentration at 0.5 h ([1]; sc 20 mg./kg.)
3.1 µg/mL: MIC (S. aureus; Sa-44 A15097, HIA, Table 4) | MIC (S. aureus; Sa-44 A15097, MHA, Table 4) | MIC (S. aureus; Sa-57 A9748, MHA, Table 2) | MIC (S. aureus; Sa-60 A20604, MHA, Table 2)
0.8 µg/mL: MIC (S. aureus; Sa-29 No. 193, MHA, Table 2) | MIC (S. aureus; Sa-37 A9524, MHA, Table 2) | MIC (S. aureus; Sa-56 A9630, MHA, Table 2) | MIC (S. aureus; Sa-62 A20606, MHA, Table 2)
100 ng/mL: concentration at 2 h ([1]; sc 10 mg./kg., 120')
12.5 µg/mL: MIC (S. aureus; Sa-63 A20607, MHA, Table 2)
9500 ng/mL: concentration at 0.25 h ([1]; sc 20 mg./kg.)
